The text below walks through data of EPA's ToxValDB 9.5 (doi:10.2903/j.efsa.2016.4453).

One series relates to Typhlodromus pyri. The experiment in a line: LR50; higher = less toxic. The conditions noted are these: not reported; mortality.
Another series relates to Anas platyrhynchos. The note with it: acute; oral; unspecified; mortality.
The test system of another series is Apis mellifera. The conditions noted are these: acute, mortality.
For the next series, the system named is Plant. The conditions noted are these: chronic/long-term; duration: 6 weeks.
Another series has as its system Oncorhynchus mykiss. The conditions noted are these: acute; duration: 96 hours; mortality.
A further series concerns Coturnix japonica. The note with it: acute; oral; mortality.
The next series has as its system Canidae. The conditions noted are these: chronic; duration: 1 years; oral; Dog Other; body weight.
The next series deals with Salmo trutta ssp. fario. The note with it: chronic/long-term; duration: 28 days; growth.
The subject of a further series is Folsomia candida. The conditions noted are these: chronic/long-term; duration: 28 days; reproduction.

Where “and” joins values, the source holds several entries; their conditions need not be identical. Equal entries are not always repeated. Bounds are passed on as bounds.

As for `COC(=O)c1ccc(I)cc1S(=O)(=O)[N-]C(=O)Nc1nc(C)nc(OC)n1.[Na+]` [Iodosulfuron methyl ester sodium salt], the LR50 in the series on Typhlodromus pyri is above 30.3 g/ha. Moreover, the LD50 with Anas platyrhynchos was above 2000 mg/kg; in the series on Apis mellifera (duration: 48 hours, dermal), above 100 µg/piece; in the series with Apis mellifera (duration: 72 hours, oral, unspecified), above 70 µg/piece; in the series on Coturnix japonica it was above 2000 mg/kg; in the series with Colinus virginianus (acute, oral, mortality) it was above 2000 mg/kg; in the series with Rattus norvegicus (acute, Wistar, mortality), 2680 mg/kg. In addition, the NOAEC in the series on Plant was 0.27 µg/L and 0.16 µg/L. In the series with Oncorhynchus mykiss, this compound gave an LC50 of 0.684 µg/mL. Also, the NOEL in the series on Colinus virginianus (reproduction developmental, reproduction) worked out at 78 mg/kg-day. Moreover, the NOAEL was found to be 7 mg/kg-day with Canidae; 3.91 mg/kg-day in the series on Rattus norvegicus (chronic, duration: 2 years, F, Wistar, body weight); 2.96 mg/kg-day with Rattus norvegicus (chronic, duration: 2 years, M, Wistar, body weight); 3 mg/kg-day in the series with Rattus norvegicus (chronic, duration: 2 years, body weight); 315 mg/kg-day in the series with Rattus norvegicus (developmental, development). The figures for the NOEC in the series on Salmo trutta ssp. fario and in the series with Folsomia candida were 7.79 mg/L and 316 mg/kg, respectively.
